Measured values published in the NIST ThermoML archive (doi:10.1021/je300945r).
± gives the expanded uncertainty stated by the source.

## F/C=C/C(F)(F)F [trans-1,3,3,3-tetrafluoropropene]
242.91 K, 56.6 kPa, Gas, isochoric method
  mass density: 3.322 ± 0.11 kg/m3
242.91 K, 56.7 kPa, Gas, isochoric method
  mass density: 3.322 ± 0.11 kg/m3
252.89 K, 59.4 kPa, Gas, isochoric method
  mass density: 3.322 ± 0.11 kg/m3
252.9 K, 59.4 kPa, Gas, isochoric method
  mass density: 3.322 ± 0.11 kg/m3
262.9 K, 62 kPa, Gas, isochoric method
  mass density: 3.311 ± 0.11 kg/m3
262.91 K, 61.9 kPa, Gas, isochoric method
  mass density: 3.311 ± 0.11 kg/m3
262.94 K, 139.4 kPa, Gas, isochoric method
  mass density: 7.692 ± 0.11 kg/m3
262.95 K, 139.4 kPa, Gas, isochoric method
  mass density: 7.692 ± 0.11 kg/m3
272.84 K, 64.4 kPa, Gas, isochoric method
  mass density: 3.311 ± 0.11 kg/m3
272.85 K, 64.4 kPa, Gas, isochoric method
  mass density: 3.311 ± 0.11 kg/m3
272.87 K, 145.5 kPa, Gas, isochoric method
  mass density: 7.634 ± 0.11 kg/m3
282.6 K, 151.4 kPa, Gas, isochoric method
  mass density: 7.634 ± 0.11 kg/m3
282.63 K, 66.9 kPa, Gas, isochoric method
  mass density: 3.311 ± 0.1 kg/m3
282.66 K, 238.8 kPa, Gas, isochoric method
  mass density: 12.5 ± 0.11 kg/m3
283.14 K, 1620 kPa, Liquid, Vibrating tube method
  mass density: 1214.3 ± 1.6 kg/m3
283.14 K, 2638 kPa, Liquid, Vibrating tube method
  mass density: 1218.5 ± 1.6 kg/m3
283.14 K, 3662 kPa, Liquid, Vibrating tube method
  mass density: 1222.4 ± 1.6 kg/m3
283.14 K, 5710 kPa, Liquid, Vibrating tube method
  mass density: 1229.8 ± 1.6 kg/m3
283.14 K, 6721 kPa, Liquid, Vibrating tube method
  mass density: 1233.2 ± 1.6 kg/m3
283.14 K, 7725 kPa, Liquid, Vibrating tube method
  mass density: 1236.6 ± 1.6 kg/m3
283.14 K, 11789 kPa, Liquid, Vibrating tube method
  mass density: 1249.5 ± 1.6 kg/m3
283.14 K, 12805 kPa, Liquid, Vibrating tube method
  mass density: 1252.4 ± 1.6 kg/m3
283.14 K, 15859 kPa, Liquid, Vibrating tube method
  mass density: 1261.2 ± 1.7 kg/m3
283.14 K, 16870 kPa, Liquid, Vibrating tube method
  mass density: 1263.9 ± 1.7 kg/m3
283.14 K, 18876 kPa, Liquid, Vibrating tube method
  mass density: 1269.4 ± 1.7 kg/m3
283.14 K, 20909 kPa, Liquid, Vibrating tube method
  mass density: 1274.5 ± 1.7 kg/m3
283.15 K, 619 kPa, Liquid, Vibrating tube method
  mass density: 1210.5 ± 1.6 kg/m3
283.15 K, 4689 kPa, Liquid, Vibrating tube method
  mass density: 1226.1 ± 1.6 kg/m3
283.15 K, 8745 kPa, Liquid, Vibrating tube method
  mass density: 1240 ± 1.6 kg/m3
283.15 K, 9760 kPa, Liquid, Vibrating tube method
  mass density: 1243.2 ± 1.6 kg/m3
283.15 K, 10765 kPa, Liquid, Vibrating tube method
  mass density: 1246.5 ± 1.6 kg/m3
283.15 K, 13827 kPa, Liquid, Vibrating tube method
  mass density: 1255.7 ± 1.7 kg/m3
283.15 K, 14841 kPa, Liquid, Vibrating tube method
  mass density: 1258.4 ± 1.7 kg/m3
283.15 K, 17875 kPa, Liquid, Vibrating tube method
  mass density: 1266.7 ± 1.7 kg/m3
283.15 K, 19891 kPa, Liquid, Vibrating tube method
  mass density: 1272 ± 1.7 kg/m3
283.15 K, 21921 kPa, Liquid, Vibrating tube method
  mass density: 1277.1 ± 1.7 kg/m3
283.15 K, 22932 kPa, Liquid, Vibrating tube method
  mass density: 1279.6 ± 1.7 kg/m3
283.15 K, 23948 kPa, Liquid, Vibrating tube method
  mass density: 1281.9 ± 1.7 kg/m3
283.15 K, 24959 kPa, Liquid, Vibrating tube method
  mass density: 1284.4 ± 1.7 kg/m3
283.15 K, 25966 kPa, Liquid, Vibrating tube method
  mass density: 1286.7 ± 1.7 kg/m3
283.15 K, 26982 kPa, Liquid, Vibrating tube method
  mass density: 1289.1 ± 1.7 kg/m3
283.15 K, 27984 kPa, Liquid, Vibrating tube method
  mass density: 1291.3 ± 1.7 kg/m3
283.15 K, 28987 kPa, Liquid, Vibrating tube method
  mass density: 1293.4 ± 1.7 kg/m3
283.15 K, 30001 kPa, Liquid, Vibrating tube method
  mass density: 1295.7 ± 1.7 kg/m3
283.15 K, 31009 kPa, Liquid, Vibrating tube method
  mass density: 1297.8 ± 1.7 kg/m3
283.15 K, 32017 kPa, Liquid, Vibrating tube method
  mass density: 1300.1 ± 1.7 kg/m3
283.15 K, 33020 kPa, Liquid, Vibrating tube method
  mass density: 1302.1 ± 1.7 kg/m3
283.15 K, 34022 kPa, Liquid, Vibrating tube method
  mass density: 1304.2 ± 1.7 kg/m3
292.54 K, 157.2 kPa, Gas, isochoric method
  mass density: 7.634 ± 0.1 kg/m3
292.56 K, 248.7 kPa, Gas, isochoric method
  mass density: 12.5 ± 0.11 kg/m3
292.56 K, 248.8 kPa, Gas, isochoric method
  mass density: 12.5 ± 0.11 kg/m3
292.76 K, 366.1 kPa, Gas, isochoric method
  mass density: 19.231 ± 0.12 kg/m3
292.83 K, 415.4 kPa, Gas, isochoric method
  mass density: 22.222 ± 0.12 kg/m3
293.14 K, 778 kPa, Liquid, Vibrating tube method
  mass density: 1179.9 ± 1.6 kg/m3
293.14 K, 1644 kPa, Liquid, Vibrating tube method
  mass density: 1184.2 ± 1.6 kg/m3
293.14 K, 2650 kPa, Liquid, Vibrating tube method
  mass density: 1188.7 ± 1.6 kg/m3
293.14 K, 4727 kPa, Liquid, Vibrating tube method
  mass density: 1197.6 ± 1.6 kg/m3
293.14 K, 5738 kPa, Liquid, Vibrating tube method
  mass density: 1201.8 ± 1.6 kg/m3
293.14 K, 6755 kPa, Liquid, Vibrating tube method
  mass density: 1205.9 ± 1.6 kg/m3
293.14 K, 7761 kPa, Liquid, Vibrating tube method
  mass density: 1209.7 ± 1.6 kg/m3
293.14 K, 8772 kPa, Liquid, Vibrating tube method
  mass density: 1213.4 ± 1.6 kg/m3
293.14 K, 10798 kPa, Liquid, Vibrating tube method
  mass density: 1220.7 ± 1.6 kg/m3
293.14 K, 12817 kPa, Liquid, Vibrating tube method
  mass density: 1227.5 ± 1.6 kg/m3
293.14 K, 13830 kPa, Liquid, Vibrating tube method
  mass density: 1230.8 ± 1.6 kg/m3
293.14 K, 15838 kPa, Liquid, Vibrating tube method
  mass density: 1236.9 ± 1.6 kg/m3
293.14 K, 16853 kPa, Liquid, Vibrating tube method
  mass density: 1240.1 ± 1.7 kg/m3
293.14 K, 17857 kPa, Liquid, Vibrating tube method
  mass density: 1243 ± 1.7 kg/m3
293.14 K, 20900 kPa, Liquid, Vibrating tube method
  mass density: 1251.6 ± 1.7 kg/m3
293.14 K, 21921 kPa, Liquid, Vibrating tube method
  mass density: 1254.3 ± 1.7 kg/m3
293.14 K, 22938 kPa, Liquid, Vibrating tube method
  mass density: 1257.2 ± 1.7 kg/m3
293.14 K, 23953 kPa, Liquid, Vibrating tube method
  mass density: 1259.7 ± 1.7 kg/m3
293.14 K, 24957 kPa, Liquid, Vibrating tube method
  mass density: 1262.3 ± 1.7 kg/m3
293.14 K, 31009 kPa, Liquid, Vibrating tube method
  mass density: 1277.1 ± 1.7 kg/m3
293.14 K, 32027 kPa, Liquid, Vibrating tube method
  mass density: 1279.3 ± 1.7 kg/m3
293.15 K, 69.4 kPa, Gas, isochoric method
  mass density: 3.311 ± 0.099 kg/m3
293.15 K, 3682 kPa, Liquid, Vibrating tube method
  mass density: 1193.3 ± 1.6 kg/m3
293.15 K, 9788 kPa, Liquid, Vibrating tube method
  mass density: 1217.1 ± 1.6 kg/m3
293.15 K, 11799 kPa, Liquid, Vibrating tube method
  mass density: 1223.9 ± 1.6 kg/m3
293.15 K, 14835 kPa, Liquid, Vibrating tube method
  mass density: 1233.8 ± 1.6 kg/m3
293.15 K, 18879 kPa, Liquid, Vibrating tube method
  mass density: 1246.2 ± 1.7 kg/m3
293.15 K, 19891 kPa, Liquid, Vibrating tube method
  mass density: 1248.9 ± 1.7 kg/m3
293.15 K, 25973 kPa, Liquid, Vibrating tube method
  mass density: 1264.9 ± 1.7 kg/m3
293.15 K, 26985 kPa, Liquid, Vibrating tube method
  mass density: 1267.4 ± 1.7 kg/m3
293.15 K, 27991 kPa, Liquid, Vibrating tube method
  mass density: 1270 ± 1.7 kg/m3
293.15 K, 28993 kPa, Liquid, Vibrating tube method
  mass density: 1272.4 ± 1.7 kg/m3
293.15 K, 30001 kPa, Liquid, Vibrating tube method
  mass density: 1274.8 ± 1.7 kg/m3
293.15 K, 33027 kPa, Liquid, Vibrating tube method
  mass density: 1281.7 ± 1.7 kg/m3
293.15 K, 34035 kPa, Liquid, Vibrating tube method
  mass density: 1284 ± 1.7 kg/m3
293.16 K, 69.4 kPa, Gas, isochoric method
  mass density: 3.311 ± 0.099 kg/m3
302.54 K, 258.5 kPa, Gas, isochoric method
  mass density: 12.5 ± 0.11 kg/m3
302.54 K, 258.6 kPa, Gas, isochoric method
  mass density: 12.5 ± 0.11 kg/m3
302.67 K, 71.8 kPa, Gas, isochoric method
  mass density: 3.311 ± 0.096 kg/m3
302.67 K, 162.7 kPa, Gas, isochoric method
  mass density: 7.634 ± 0.099 kg/m3
302.69 K, 162.7 kPa, Gas, isochoric method
  mass density: 7.634 ± 0.099 kg/m3
302.78 K, 381.8 kPa, Gas, isochoric method
  mass density: 19.231 ± 0.11 kg/m3
